Source: patent US10383977B2, “Cardiovascular prostheses” (CorMatrix Cardiovascular, Inc., priority 2011, dated 2019)

System: CCR2
Assay: In vitro assay, TNF-α stimulated CCR2 expression in THP-1 cells (quantitative PCR)
Assay type: cell-based, human
Conditions: THP-1 cells treated with TNF-α
Description: In the following study, the activity of cerivastatin and other statins, including simvastatin, lovastatin and atorvastatin, was similarly assessed using the human monocytic cell line THP-1. The THP-1 cells were similarly seeded by preparing a solution of THP-1 cells at 6×10^5 cells/ml and loading the solution of THP-1 cells onto a cell culture plate. The in vitro assay included six (6) treatment groups, including one (1) control group consisting of untreated THP-1 cells, one (1) positive control group consisting of THP-1 cells treated with tumor necrosis factor alpha (TNF-α) alone, four (4) treatment groups consisting of THP-1 cells treated with TNF-α and cerivastatin, TNF-α and simvastatin, TNF-α and lovastatin and TNF-α and atorvastatin. In this study, the THP-1 cells were treated with TNF-α to stimulate the production of CCR2. Each of the six (6) THP-1 cell samples were harvested and collected in a sealable vial and centrifuged to separate the liquid media from the THP-1 cells. The THP-1 cells were then collected and used for RNA extraction and quantitative PCR.

## CC(C)c1c(C(=O)Nc2ccccc2)c(-c2ccccc2)c(-c2ccc(F)cc2)n1CC[C@@H](O)C[C@@H](O)CC(=O)O [atorvastatin]
  expression of CCR2: did not, however, restrict CCR2 expression at levels comparable to cerivastatin

## CC[C@H](C)C(=O)O[C@H]1C[C@@H](C)C=C2C=C[C@H](C)[C@H](CC[C@@H]3C[C@@H](O)CC(=O)O3)[C@H]21 [lovastatin]
  expression of CCR2: did not, however, restrict CCR2 expression at levels comparable to cerivastatin
